Source: patent US8536202B2, “Triazole-substituted anthranilamides as pesticides” (Bayer Cropscience AG, priority 2010, dated 2013)
Like-named read-outs stand apart in the source and are kept apart here.

Legend:
[1] = test system: green peach aphid (Myzus persicae); assay: Myzus test (MYZUPE spray treatment), Use Example 4; type: in vivo; settings: 144 h, read-out: activity in %
Procedure, shortened: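 Compound was formulated in acetone/dimethylformamide with alkylaryl polyglycol ether emulsifier and diluted in emulsifier-containing water. It was sprayed onto Chinese cabbage leaf discs infested with all stages of Myzus persicae. Mortality (%) was scored after 6 days, where 100% means all aphids killed.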

[2] = test system: larvae of the mustard beetle (Phaedon cochleariae); assay: Phaedon test (PHAECO spray treatment); type: in vivo; settings: 168 h, read-out: activity in %
Procedure, shortened: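 Compound dissolved in acetone/dimethylformamide with alkylaryl polyglycol ether emulsifier, then diluted with emulsifier-containing water to test concentration for spray treatment of Phaedon cochleariae larvae. Activity scored after 7 days as % larvae killed (100% = all dead, 0% = none).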

[3] = test system: Lucilia cuprina larvae; assay: Lucilia cuprina test (LUCICU); type: in vivo; settings: 48 h, read-out: kill in %
Description: (§1) Solvent: dimethyl sulphoxide
An appropriate preparation of active compound is prepared by mixing 10 mg of active compound with 0.5 ml of dimethyl sulphoxide and diluting the concentrate with water to the desired concentration.
Vessels containing horse meat treated with the preparation of active compound at the desired concentration are populated with approximately 20 Lucilia cuprina larvae.
After 2 days, the kill in % is ascertained. Here, 100% means that all of the larvae have been killed; 0% means that no larvae have been killed.

[4] = test system: Boophilus microplus; assay: Boophilus microplus test (BOOPMI injection); type: in vivo; settings: Rhipicephalus microplus, 168 h, 20 μg/animal, after 7 days, read-out: activity in % (no fertile eggs laid)
Description: as §1
An appropriate preparation of active compound is prepared by mixing 10 mg of active compound with 0.5 ml of solvent and diluting the concentrate with solvent to the desired concentration. The solution of active compound is injected into the abdomen (Boophilus microplus), and the animals are transferred to dishes and kept in a climatized room. Activity is assessed by deposition of fertile eggs.
After 7 days, the activity in % is assessed. Here, 100% means that none of the ticks has laid fertile eggs.

[5] = log P determination by HPLC on reversed-phase columns (EEC Directive 79/831 Annex V.A8); type: physicochemical; settings: pH 2.7
Procedure, shortened: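 log P from reversed-phase LC-MS retention at pH 2.7, 0.1% formic acid water/acetonitrile gradient 10–95% acetonitrile. Calibrated against C3–C16 unbranched alkan-2-ones, interpolating linearly between adjacent alkanones.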

[6] = test system: caterpillars of the armyworm (Spodoptera frugiperda); assay: Spodoptera frugiperda test (SPODFR spray treatment); type: in vivo; settings: 168 h; for pest or weed control at 100 g/ha: read-out: activity in %
Procedure, shortened: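 Maize leaf discs sprayed with compound diluted in emulsifier-containing water (acetone/DMF solvent, alkylaryl polyglycol ether emulsifier), dried, then infested with armyworm caterpillars. Kill scored after 7 days as % mortality, 100% = all caterpillars dead, 0% = none.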

[7] = test system: adult Musca domestica; assay: Musca domestica test (MUSCDO); type: in vivo; settings: 48 h, read-out: kill in %
Description: as §1
An appropriate preparation of active compound is prepared by mixing 10 mg of active compound with 0.5 ml of dimethyl sulphoxide and diluting the concentrate with water to the desired concentration. Vessels containing a sponge treated with the preparation of active compound at the desired concentration are populated with adult Musca domestica.
After 2 days, the kill in % is ascertained. Here, 100% means that all of the flies have been killed; 0% means that no flies have been killed.

[8] = reversed-phase C18 HPLC column, HPLC on reversed-phase columns (C 18), EEC Directive 79/831 Annex V.A8, read-out: logP
[9] = HPLC on reversed-phase columns (C 18), EEC Directive 79/831 Annex V.A8, read-out: logP

## Cc1cc(Br)cc(C(=O)NC2CC2)c1NC(=O)c1cc(Cn2ncc(C(F)(F)F)n2)nn1-c1ncccc1Cl [Example 174]
[1]; 100 g/ha, after 6 days
  pest or weed control at 100 g/ha: 100%
[2]; 100 g/ha, after 7 days
  pest or weed control at 100 g/ha: 100%
[3]
  pest or weed control at 100 ppm: 100%
[4]
  pest or weed control at 0.02 mg: 100%
[5]
  chromatographic logP: 3.28
[6]; 100 g/ha, after 7 days
  pest or weed control at 100 g/ha: 100%

## CC(NC(=O)c1cc(Cl)cc(Cl)c1NC(=O)c1cc(Cn2ncc(C(F)(F)F)n2)nn1-c1ncccc1Cl)C1CC1 (stereo not drawn) [Example 147]
[2]; 100 g/ha, after 7 days
  pest or weed control at 100 g/ha: 100%
[3]
  pest or weed control at 100 ppm: 100%
[4]
  pest or weed control at 0.02 mg: 100%
[5]
  chromatographic logP: 3.73
[6]; 100 g/ha, after 7 days
  pest or weed control at 100 g/ha: 100%

## Cc1cc(Br)cc(C(=O)NC(C)C)c1NC(=O)c1cc(Cn2ncc(C(F)(F)F)n2)nn1-c1ncccc1Cl [Example 175]
[2]; 100 g/ha, after 7 days
  pest or weed control at 100 g/ha: 100%
[3]
  pest or weed control at 100 ppm: 100%
[4]
  pest or weed control at 0.02 mg: 100%
[5]
  chromatographic logP: 3.55
[6]; 100 g/ha, after 7 days
  pest or weed control at 100 g/ha: 100%

## Cc1cc(C#N)cc(C(=O)NC(C)(C)C)c1NC(=O)c1cc(Cn2cc(C(F)(F)F)nn2)nn1-c1ncccc1Br [Example 7]
[1]; 100 g/ha, after 6 days
  pest or weed control at 100 g/ha: 100%
[2]; 100 g/ha, after 7 days
  pest or weed control at 100 g/ha: 100%
[3]; 100 ppm, after 2 days
  pest or weed control at 100 ppm: 100%
[4]
  pest or weed control at 0.02 mg: 100%
[5]; [8]
  chromatographic logP: 3.44
[6]; 100 g/ha, after 7 days
  pest or weed control at 100 g/ha: 100%

## CSC[C@H](C)NC(=O)c1cc(Cl)cc(Cl)c1NC(=O)c1cc(Cn2ncc(C(F)(F)F)n2)nn1-c1ncccc1Cl [Example 155]
[1]; 100 g/ha, after 6 days
  pest or weed control at 100 g/ha: 100%
[2]; 100 g/ha, after 7 days
  pest or weed control at 100 g/ha: 100%
[3]
  pest or weed control at 100 ppm: 100%
[4]
  pest or weed control at 0.02 mg: 100%
[5]
  chromatographic logP: 3.64
[6]; 100 g/ha, after 7 days
  pest or weed control at 100 g/ha: 100%

## CNC(=O)c1cc(Cl)cc(C)c1NC(=O)c1cc(Cn2nnc3cc(C(F)(F)F)ccc32)nn1-c1ncccc1Cl [Example 70]
[1]; 100 g/ha, after 6 days
  pest or weed control at 100 g/ha: 100%
[2]; 100 g/ha, after 7 days
  pest or weed control at 100 g/ha: 100%
[3]
  pest or weed control at 100 ppm: 100%
[4]
  pest or weed control at 0.02 mg: 100%
[5]
  chromatographic logP: 3.13
[6]; 100 g/ha, after 7 days
  pest or weed control at 100 g/ha: 100%

## NC(=O)c1cc(Cl)cc(Cl)c1NC(=O)c1cc(Cn2cc(C(F)(C(F)(F)F)C(F)(F)F)nn2)nn1-c1ncccc1Cl [Example 247]
[2]; 100 g/ha, after 7 days
  pest or weed control at 100 g/ha: 100%
[3]
  pest or weed control at 100 ppm: 100%
[7]
  pest or weed control at 100 ppm: 100%
[4]
  pest or weed control at 0.02 mg: 100%
[5]
  chromatographic logP: 3.13
[6]; 100 g/ha, after 7 days
  pest or weed control at 100 g/ha: 100%

## Cc1cc(I)cc(C(=O)NC(C)(C)C)c1NC(=O)c1cc(Cn2ncc(C(F)(F)F)n2)nn1-c1ncccc1Cl [Example 162]
[2]; 100 g/ha, after 7 days
  pest or weed control at 100 g/ha: 100%
[3]
  pest or weed control at 100 ppm: 100%
[4]
  pest or weed control at 0.02 mg: 100%
[5]
  chromatographic logP: 4.11
[6]; 100 g/ha, after 7 days
  pest or weed control at 100 g/ha: 100%

## CNC(=O)c1cc(Cl)cc(C)c1NC(=O)c1cc(Cn2ncc(C(F)(F)F)n2)nn1-c1ncccc1Cl [Example 135]
[1]; 100 g/ha, after 6 days
  pest or weed control at 100 g/ha: 90%
[2]; 100 g/ha, after 7 days
  pest or weed control at 100 g/ha: 100%
[3]
  pest or weed control at 100 ppm: 100%
[4]
  pest or weed control at 0.02 mg: 100%
[5]
  chromatographic logP: 2.99
[6]; 100 g/ha, after 7 days
  pest or weed control at 100 g/ha: 100%

## Cc1cc(Cl)cc(C(=O)NC(C)C2CC2)c1NC(=O)c1cc(Cn2ncc(C(F)(F)F)n2)nn1-c1ncccc1Cl (stereo not drawn) [Example 136]
[2]; 100 g/ha, after 7 days
  pest or weed control at 100 g/ha: 100%
[3]
  pest or weed control at 100 ppm: 100%
[4]
  pest or weed control at 0.02 mg: 100%
[5]
  chromatographic logP: 3.8
[6]; 100 g/ha, after 7 days
  pest or weed control at 100 g/ha: 100%

## CCNC(=O)c1cc(Cl)cc(C)c1NC(=O)c1cc(Cn2cc(C(F)(F)C(F)(F)C(F)(F)F)nn2)nn1-c1ncccc1Cl [Example 341]
[1]
  pest or weed control at 100 g/ha: 100%
[2]
  pest or weed control at 100 g/ha: 100%
[5]; [9]
  chromatographic logP: 3.62
[6]
  pest or weed control at 100 g/ha: 100%

## Cc1cc(Cl)cc(C(=O)NC2CC2)c1NC(=O)c1cc(Cn2ncc(C(F)(F)C(F)(F)F)n2)nn1-c1ncccc1Cl [Example 362]
[1]; 100 g/ha, after 6 days
  pest or weed control at 100 g/ha: 80%
[2]; 100 g/ha, after 7 days
  pest or weed control at 100 g/ha: 100%
[5]
  chromatographic logP: 3.62
[6]; 100 g/ha, after 7 days
  pest or weed control at 100 g/ha: 100%

## CSC[C@H](C)NC(=O)c1cc(Cl)cc(C)c1NC(=O)c1cc(Cn2ncc(C(F)(F)C(F)(F)C(F)(F)F)n2)nn1-c1ncccc1Cl [Example 383]
[1]
  pest or weed control at 100 g/ha: 80%
[2]
  pest or weed control at 100 g/ha: 100%
[5]; [9]
  chromatographic logP: 4.41
[6]
  pest or weed control at 100 g/ha: 100%

## CNC(=O)c1cc(C#N)cc(C)c1NC(=O)c1cc(Cn2nncc2C(F)(C(F)(F)F)C(F)(F)F)nn1-c1ccccc1Cl [Example 298]
[1]; 100 g/ha, after 6 days
  pest or weed control at 100 g/ha: 80%
[2]; 100 g/ha, after 7 days
  pest or weed control at 100 g/ha: 100%
[5]; [8]
  chromatographic logP: 3.46
[6]; 100 g/ha, after 7 days
  pest or weed control at 100 g/ha: 100%

## Cc1cc(Cl)cc(C(=O)NCC#N)c1NC(=O)c1cc(Cn2ncc(C(F)(F)F)n2)nn1-c1ncccc1Cl [Example 143]
[1]; 100 g/ha, after 6 days
  pest or weed control at 100 g/ha: 100%
[2]; 100 g/ha, after 7 days
  pest or weed control at 100 g/ha: 100%
[5]
  chromatographic logP: 2.97
[6]; 100 g/ha, after 7 days
  pest or weed control at 100 g/ha: 100%

## CCNC(=O)c1cc(Cl)cc(C)c1NC(=O)c1cc(Cn2cc(C(F)(F)C(F)(F)F)nn2)nn1-c1ncccc1Cl [Example 302]
[1]; 100 g/ha, after 6 days
  pest or weed control at 100 g/ha: 80%
[2]; 100 g/ha, after 7 days
  pest or weed control at 100 g/ha: 100%
[5]
  chromatographic logP: 3.26
[6]; 100 g/ha, after 7 days
  pest or weed control at 100 g/ha: 100%

## CC(C)(C)NC(=O)c1cc(Cl)cc(Cl)c1NC(=O)c1cc(Cn2cc(C(F)(F)F)nn2)nn1-c1ncccc1Cl [Example 201]
[1]; 100 g/ha, after 6 days
  pest or weed control at 100 g/ha: 100%
[2]; 100 g/ha, after 7 days
  pest or weed control at 100 g/ha: 100%
[5]
  chromatographic logP: 3.42
[6]; 100 g/ha, after 7 days
  pest or weed control at 100 g/ha: 100%

## CC(C)(C)NC(=O)c1cc(Cl)cc(Cl)c1NC(=O)c1cc(Cn2ncc(C(F)(F)F)n2)nn1-c1ncccc1Cl [Example 151]
[1]; 100 g/ha, after 6 days
  pest or weed control at 100 g/ha: 100%
[2]; 100 g/ha, after 7 days
  pest or weed control at 100 g/ha: 100%
[3]
  pest or weed control at 100 ppm: 100%
[4]
  pest or weed control at 0.02 mg: 100%
[5]
  chromatographic logP: 3.8
[6]; 100 g/ha, after 7 days
  pest or weed control at 100 g/ha: 100%

## CNC(=O)c1cc(Cl)cc(C)c1NC(=O)c1cc(Cn2ncc(C(F)(F)C(F)(F)C(F)(F)F)n2)nn1-c1ncccc1Cl [Example 368]
[1]
  pest or weed control at 100 g/ha: 100%
[2]
  pest or weed control at 100 g/ha: 100%
[5]; [9]
  chromatographic logP: 3.76
[6]
  pest or weed control at 100 g/ha: 100%

## Cc1cc(C#N)cc(C(N)=O)c1NC(=O)c1cc(Cn2cc(C(F)(C(F)(F)F)C(F)(F)F)nn2)nn1-c1ncccc1Cl [Example 223]
[1]; 100 g/ha, after 6 days
  pest or weed control at 100 g/ha: 100%
[2]; 100 g/ha, after 7 days
  pest or weed control at 100 g/ha: 100%
[5]
  chromatographic logP: 2.84
[6]; 20 g/ha, after 7 days
  pest or weed control at 20 g/ha: 100%

## Cc1cc(F)cc(C(=O)NC(C)C)c1NC(=O)c1cc(Cn2ncc(C(F)(F)F)n2)nn1-c1ncccc1Cl [Example 170]
[1]; 100 g/ha, after 6 days
  pest or weed control at 100 g/ha: 100%
[2]; 100 g/ha, after 7 days
  pest or weed control at 100 g/ha: 100%
[5]
  chromatographic logP: 3.08
[6]; 100 g/ha, after 7 days
  pest or weed control at 100 g/ha: 100%
